In the assay the target is Cannabinoid receptor 2 (Homo sapiens, UniProt P34972). The assay is described as follows: Binding affinity towards cloned human cannabinoid receptor 2.
Cannabinoid receptor 2, sequence (P34972 whole entry): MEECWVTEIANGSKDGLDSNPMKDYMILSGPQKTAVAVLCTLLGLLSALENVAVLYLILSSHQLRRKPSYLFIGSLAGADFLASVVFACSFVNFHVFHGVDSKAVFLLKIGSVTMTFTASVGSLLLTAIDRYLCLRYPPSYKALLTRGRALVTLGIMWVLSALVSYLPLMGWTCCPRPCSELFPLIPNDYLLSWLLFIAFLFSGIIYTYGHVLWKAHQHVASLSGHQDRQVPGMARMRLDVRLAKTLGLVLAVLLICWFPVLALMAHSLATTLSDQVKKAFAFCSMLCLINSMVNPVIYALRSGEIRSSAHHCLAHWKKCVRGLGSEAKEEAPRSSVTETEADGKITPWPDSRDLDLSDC

By Ki is commonly meant a measure of affinity in units of concentration, obtained from inhibition or displacement. For `CCCCCn1ccc(C(=O)c2cccc3ccccc23)c1`, the Ki amounted to 320 nM.
`CC1=CCC2C(C1)c1c(O)cc(CCCCC(F)(F)F)cc1OC2(C)C` (stereo not given) showed a Ki of 30 nM.
`CCCCC/C=C\C/C=C\C/C=C\C/C=C\CCCC(=O)N1CCOCC1` came in with a Ki of 540 nM.
Molecule `CCCCC/C=C\C/C=C\C/C=C\C/C=C\CCC(C(=O)NCCO)C(C)C` (stereo not given) had a Ki of 5100 nM.
In the case of `CC1=CCC2C(C1)c1c(O)cc(CCCCCF)cc1OC2(C)C` (stereo not given), affinity was put at a Ki of 8.7 nM.
Then `CCCCC/C=C\C/C=C\C/C=C\C/C=C\CCC(C)C(=O)NCCF` (stereo not given) [2-Methyl-icosa-5,8,11,14-tetraenoic acid (2-fluoro-ethyl)-amide (0689)], with 130 nM; and `CCCCCc1cc(O)c2c(c1)OC(C)(C)c1ccc(C)cc1-2` [6,6,9-Trimethyl-3-pentyl-6H-benzo[c]chromen-1-ol(Cannabinol)], with 95 nM.
In turn, `CCCCC/C=C\C/C=C\C/C=C\C/C=C\CCCC(=O)NCCF` [(5Z,8Z,11Z,14Z)-Icosa-5,8,11,14-tetraenoic acid (2-fluoro-ethyl)-amide] returned a Ki of 320 nM.
Consider `CCCCC/C=C\C/C=C\C/C=C\C/C=C\CCCC(=O)NCCOC` [(5Z,8Z,11Z,14Z)-Icosa-5,8,11,14-tetraenoic acid (2-methoxy-ethyl)-amide], for which the affinity corresponds to a Ki of 450 nM.
In the case of `CCCCCn1c(C)c(C(=O)c2cccc3ccccc23)c2ccccc21` [JWH-007] it was 3 nM.

The values are drawn from BindingDB's records for doi:10.1021/jm991074s (University of Catania, 2000).
